Columns and labels:
New Zealand Rabbits = assay: Ocular toxicity of intravitreal Compound 1 with and without urea (Table A); type: in vivo; conditions: single intravitreal injection, 24 hour follow up, 8 eyes per group
[1] = tested on: human umbilical vein endothelial cells (HUVEC); assay: wound-healing assay with HUVEC on fibronectin coated surface; type: cell-based
Experimental: To test the anti-adhesive properties of RGCysteic Acid peptides in vitro, a wound-healing assay was performed with human umbilical vein endothelial cells (HUVEC). HUVEC were seeded and allowed to grow to a confluent monolayer on a fibronectin coated surface. A wound (a scratch rift) was created by dragging a small pipette tip across the HUVEC monolayer. The cells were then incubated in fresh growth medium containing the RGCysteic Acid peptide (Compound 1; 10 mM), and the wound area was imaged in five different fields at various time points (0, 4, 8, 12, 16, 20, 24 hours) to determine the kinetics of wound closure. The level of wound closure was quantified by determining the fraction of the original wound area that was re-occupied by HUVEC through cellular adhesion, migration and proliferation.
In control studies, the following peptides were used in place of RGCysteic Acid (Compound 1): cyclic-RGD peptide (1 mM), positive control) and RGE peptide (1 mM, negative control).
The results are shown as a percentage of the original area. The error bars correspond to the standard deviation in wound size across 2-6 independent trials.

rho/VEGF mice = assay: Subretinal neovascularization in transgenic rho/VEGF mice expressing human VEGF; type: in vivo; conditions: 10 μg, single intraocular injection, seven days post-dose, 3 animals
Experimental: Transgenic mice in which the rhodopsin promoter drives expression of human VEGF in photoreceptors (rho/VEGF mice) were randomized into separate treatment groups and studies were performed to provide the following comparisons:
Pretreatment measurements of the area of subretinal neovascularization were made on each animal using image analysis by a masked observer. Each animal received its designated treatment in a single intraocular injection. Seven days post-dose, measurements of the area of subretinal neovascularization were again made and compared to the pre-dose measurements to determine the change in subretinal neovascularization area. Also, the animals were sacrificed and the retinas were dissected, immunostained with GSA lectin and examined by fluorescence microscopy.

Molecule: NC(N)=O [12% Urea solution, Urea, reference compound]
- Total PVD (New Zealand Rabbits): 0% Total PVD
- Vitreous liquefaction (New Zealand Rabbits): No liquefaction

Molecule: CC(C)[C@H]1C(=O)N[C@@H](CCCN=C(N)N)C(=O)NCC(=O)N[C@@H](CC(=O)O)C(=O)N[C@H](Cc2ccccc2)C(=O)N1C [Cyclic RGD, N-methylated cyclic-RGDf-N(Me)V, reference compound]
- inhibition of cell adhesion ([1]; HUVEC wound healing model, in 12 hours): 40%
- inhibition of HUVEC wound healing ([1]; after 24 hours, Compound 1 10 mM, control peptides 1 mM): 45%

B1: ranibizumab: recombinant humanized IgG1 kappa isotype monoclonal antibody fragment (antibody, chains of the INN, looked up, V domains shown)
VH: EVQLVESGGGLVQPGGSLRLSCAASGYDFTHYGMNWVRQAPGKGLEWVGWINTYTGEPTYAADFKRRFTFSLDTSKSTAYLQMNSLRAEDTAVYYCAKYPYYYGTSHWYFDVWGQGTLVTVSS
VL: DIQLTQSPSSLSASVGDRVTITCSASQDISNYLNWYQQKPGKAPKVLIYFTSSLHSGVPSRFSGSGSGTDFTLTISSLQPEDFATYYCQQYSTVPWTFGQGTKVEIK
modifications: Fab
notes: recombinant humanized IgG1 kappa isotype monoclonal antibody fragment
- greater reduction in subretinal neovascularization area than control animals (Phosphate Buffered Saline) (rho/VEGF mice): 38.96%

Source: US10590166B2, “Peptides useable for treating cancer” (Allegro Pharmaceuticals, LLC, priority 2009, dated 2020)
